In patent publication US20120029187A1, “HALOALKYLSULFONANILIDE DERIVATIVE” (Nissan Chemical Industries, Ltd., priority 2009, published 2012):

What was measured:
Assay type in all cases: in vivo
barnyardgrass [1] = assay: Test Example 1: herbicidal effects in preemergence treatment under submerged conditions; settings: dose 2.52 g/a
In short: (§1)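 Scoring 0 (<5% mortality) to 5 (≥90%) was done three weeks after preemergence application to the water surface of submerged (4 cm) alluvial soil, doses given as g per are. Weeds were seeded and 2.5-leaf rice transplanted on the treatment day; greenhouse at 25–30 °C.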

bulrush [2] = assay: as above; settings: dose 2.52 g/a
In short: as §1

ducksalad [3] = assay: as above; settings: dose 2.52 g/a
In short: as §1

transplanted rice = assay: Test Example 1: preemergence treatment under submerged conditions, effect on crop; settings: dose 2.52 g/a
In short: as §1

barnyardgrass [4] = assay: Test Example 2: herbicidal effects during the vegetation period under submerged conditions; settings: treatment during the vegetation period under submerged conditions; dose 2.52 g/a
In short: (§2)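 Barnyardgrass, bulrush and ducksalad were co-sown in alluvial soil flooded to 4 cm and grown in a greenhouse at 25 to 30° C. At the 1- or 2-leaf stage, water-diluted emulsifiable concentrates went onto the water surface at set doses (g/a). Herbicidal effect was scored three weeks later on a graded scale.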

bulrush [5] = assay: as above; settings: treatment during the vegetation period under submerged conditions; dose 2.52 g/a
In short: as §2

ducksalad [6] = assay: as above; settings: treatment during the vegetation period under submerged conditions; dose 2.52 g/a
In short: as §2

Italian ryegrass [7] = assay: Test Example 3: herbicidal effects in soil treatment; settings: dose 3.2 g/a
In short: (§3)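 Seeds were sown in sterilized diluvial soil and covered with about 1.5 cm of soil. Compounds, formulated as emulsifiable concentrates and diluted with water, were sprayed evenly over the soil surface at set doses in g/a. Herbicidal effect was scored on a rating scale three weeks later.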

barnyardgrass [8] = assay: as above; settings: dose 3.2 g/a
In short: as §3

common chickweed [9] = assay: as above; settings: dose 3.2 g/a
In short: as §3

common lambsquater [10] = assay: as above; settings: dose 3.2 g/a
In short: as §3

common ragweed [11] = assay: as above; settings: dose 3.2 g/a
In short: as §3

giant foxtail [12] = assay: as above; settings: dose 3.2 g/a
In short: as §3

large crabgrass [13] = assay: as above; settings: dose 3.2 g/a
In short: as §3

posumbu knotweed [14] = assay: as above; settings: dose 3.2 g/a
In short: as §3

redroot pigweed [15] = assay: as above; settings: dose 3.2 g/a
In short: as §3

velvetleaf [16] = assay: as above; settings: dose 3.2 g/a
In short: as §3

water foxtail [17] = assay: as above; settings: dose 3.2 g/a
In short: as §3

Italian ryegrass [18] = assay: Test Example 4: herbicidal effect in foliage treatment; settings: dose 3.2 g/a, three weeks after the application
In short: (§4)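 Doses are given in grams per are of applied compound, sprayed as water-diluted emulsifiable concentrate onto foliage of 14-day-old plants grown at 25 to 30° C. Herbicidal activity was assessed visually on a rating scale after three weeks.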

barnyardgrass [19] = assay: as above; settings: dose 3.2 g/a, three weeks after the application
In short: as §4

beadstraw = assay: as above; settings: dose 3.2 g/a, three weeks after the application
In short: as §4

common chickweed [20] = assay: as above; settings: dose 3.2 g/a, three weeks after the application
In short: as §4

common lambsquater [21] = assay: as above; settings: dose 3.2 g/a, three weeks after the application
In short: as §4

common ragweed [22] = assay: as above; settings: dose 3.2 g/a, three weeks after the application
In short: as §4

giant foxtail [23] = assay: as above; settings: dose 3.2 g/a, three weeks after the application
In short: as §4

large crabgrass [24] = assay: as above; settings: dose 3.2 g/a, three weeks after the application
In short: as §4

posumbu knotweed [25] = assay: as above; settings: dose 3.2 g/a, three weeks after the application
In short: as §4

redroot pigweed [26] = assay: as above; settings: dose 3.2 g/a, three weeks after the application
In short: as §4

velvetleaf [27] = assay: as above; settings: dose 3.2 g/a, three weeks after the application
In short: as §4

water foxtail [28] = assay: as above; settings: dose 3.2 g/a, three weeks after the application
In short: as §4

Compound | A: barnyardgrass, herbicidal effect (evaluation scale 0-5) (barnyardgrass [1]) | B: bulrush, herbicidal effect (evaluation scale 0-5) (bulrush [2]) | C: ducksalad, herbicidal effect (evaluation scale 0-5) (ducksalad [3]) | a: transplanted rice, effect on crop (evaluation scale 0-5) (transplanted rice) | A: barnyardgrass, herbicidal effect (evaluation scale 0-5) (barnyardgrass [4]) | B: bulrush, herbicidal effect (evaluation scale 0-5) (bulrush [5]) | C: ducksalad, herbicidal effect (evaluation scale 0-5) (ducksalad [6]) | herbicidal effect, H: Italian ryegrass (Italian ryegrass [7]) | herbicidal effect, A: barnyardgrass (barnyardgrass [8]) | herbicidal effect, N: common chickweed (common chickweed [9]) | herbicidal effect, L: common lambsquater (common lambsquater [10]) | herbicidal effect, J: common ragweed (common ragweed [11]) | herbicidal effect, E: giant foxtail (giant foxtail [12]) | herbicidal effect, D: large crabgrass (large crabgrass [13]) | herbicidal effect, M: posumbu knotweed (posumbu knotweed [14]) | herbicidal effect, K: redroot pigweed (redroot pigweed [15]) | herbicidal effect, I: velvetleaf (velvetleaf [16]) | herbicidal effect, G: water foxtail (water foxtail [17]) | H: Italian ryegrass, herbicidal effect (Italian ryegrass [18]) | A: barnyardgrass, herbicidal effect (barnyardgrass [19]) | also measured
CCOC(=O)N(c1ccccc1CN1OCCOC1=O)S(=O)(=O)C(F)(F)F [III-2] | 4 (mortality of at least 70% and less than 90%) | 5 (mortality of 90% or above (nearly complete death)) | 5 (mortality of 90% or above (nearly complete death)) | 0 (mortality of less than 5% (almost ineffective)) | 3 (mortality of at least 40% and less than 70%) | 5 (mortality of 90% or above (nearly complete death)) | 4 (mortality of at least 70% and less than 90%) | 3 (mortality of at least 40% and less than 70%) | 4 (mortality of at least 70% and less than 90%) | 3 (mortality of at least 40% and less than 70%) | 5 (mortality of 90% or above (nearly complete death)) | 0 (mortality of less than 5% (almost ineffective)) | 0 (mortality of less than 5% (almost ineffective)) | 0 (mortality of less than 5% (almost ineffective)) | 4 (mortality of at least 70% and less than 90%) | 0 (mortality of less than 5% (almost ineffective)) | 5 (mortality of 90% or above (nearly complete death)) | 5 (mortality of 90% or above (nearly complete death)) | 3 (mortality of at least 40% and less than 70%) | 4 (mortality of at least 70% and less than 90%) | O: beadstraw, herbicidal effect (beadstraw): 3 (mortality of at least 40% and less than 70%); N: common chickweed, herbicidal effect (common chickweed [20]): 3 (mortality of at least 40% and less than 70%); L: common lambsquater, herbicidal effect (common lambsquater [21]): 3 (mortality of at least 40% and less than 70%); J: common ragweed, herbicidal effect (common ragweed [22]): 4 (mortality of at least 70% and less than 90%); E: giant foxtail, herbicidal effect (giant foxtail [23]): 0 (mortality of less than 5% (almost ineffective)); D: large crabgrass, herbicidal effect (large crabgrass [24]): 0 (mortality of less than 5% (almost ineffective)); M: posumbu knotweed, herbicidal effect (posumbu knotweed [25]): 4 (mortality of at least 70% and less than 90%); K: redroot pigweed, herbicidal effect (redroot pigweed [26]): 3 (mortality of at least 40% and less than 70%); I: velvetleaf, herbicidal effect (velvetleaf [27]): 4 (mortality of at least 70% and less than 90%); G: water foxtail, herbicidal effect (water foxtail [28]): 5 (mortality of 90% or above (nearly complete death))
CCOC(=O)N(c1ccccc1CN1OCC(C)OC1=O)S(=O)(=O)C(F)(F)F (stereo not drawn) [III-4] | 5 (mortality of 90% or above (nearly complete death)) | 5 (mortality of 90% or above (nearly complete death)) | 5 (mortality of 90% or above (nearly complete death)) | 0 (mortality of less than 5% (almost ineffective)) | 5 (mortality of 90% or above (nearly complete death)) | 5 (mortality of 90% or above (nearly complete death)) | 5 (mortality of 90% or above (nearly complete death)) | 5 (mortality of 90% or above (nearly complete death)) | 5 (mortality of 90% or above (nearly complete death)) | 4 (mortality of at least 70% and less than 90%) | 5 (mortality of 90% or above (nearly complete death)) | 3 (mortality of at least 40% and less than 70%) | 5 (mortality of 90% or above (nearly complete death)) | 5 (mortality of 90% or above (nearly complete death)) | 5 (mortality of 90% or above (nearly complete death)) | 3 (mortality of at least 40% and less than 70%) | 5 (mortality of 90% or above (nearly complete death)) | 5 (mortality of 90% or above (nearly complete death)) | 1 (mortality of at least 5% and less than 20%) | 5 (mortality of 90% or above (nearly complete death)) | O: beadstraw, herbicidal effect (beadstraw): 3 (mortality of at least 40% and less than 70%); N: common chickweed, herbicidal effect (common chickweed [20]): 5 (mortality of 90% or above (nearly complete death)); L: common lambsquater, herbicidal effect (common lambsquater [21]): 1 (mortality of at least 5% and less than 20%); J: common ragweed, herbicidal effect (common ragweed [22]): 4 (mortality of at least 70% and less than 90%); E: giant foxtail, herbicidal effect (giant foxtail [23]): 4 (mortality of at least 70% and less than 90%); D: large crabgrass, herbicidal effect (large crabgrass [24]): 3 (mortality of at least 40% and less than 70%); M: posumbu knotweed, herbicidal effect (posumbu knotweed [25]): 3 (mortality of at least 40% and less than 70%); K: redroot pigweed, herbicidal effect (redroot pigweed [26]): 0 (mortality of less than 5% (almost ineffective)); I: velvetleaf, herbicidal effect (velvetleaf [27]): 3 (mortality of at least 40% and less than 70%); G: water foxtail, herbicidal effect (water foxtail [28]): 5 (mortality of 90% or above (nearly complete death))
